Data on 1 substance can be found in patent publication EP4722363A1, “RNAI AGENT FOR INHIBITING ANGPTL3 EXPRESSION AND USE THEREOF” (YUN HO BIO CO., LTD, priority 2023, dated 2024).

Series [1] concerns ANGPTL3 Protein. The experiment in a line: PHH free uptake, inhibition of ANGPTL3, ELISA of supernatant. The series is classed as cell-based. To be noted: primary human hepatocytes, 72 hours. The procedure:
PHH cells were thawed and adjusted to a density of 6×10^5 cells/mL. Then, 10 µL of the compound from the dilution plate was added to the cell culture plate, resulting in final compound concentrations of 100, 40, 12.5, 5, and 2 nM. The cells were seeded into a 96-well plate at a density of 54,000 cells per well (90 µL/well), with a final culture volume of 100 µL per well. The cells were cultured in a 5% CO2 incubator at 37°C for 72 hours.
(§1) The supernatant from the PHH and PCH cultures from the previous steps was collected, transferred to a new 96-well V-bottom plate, and centrifuged. Human Angiopoietin-like 3 protein (hANGPTL3 protein; DANL30) ELISA test was performed according to the instructions of HANGPTL 3 protein Kit.
(§2) Data Analysis: Four Parameter Logistic method. This method constructs a standard curve by plotting, with the y-axis as the average absorbance of the standards and the x-axis as the concentration, drawing a best-fit curve through the points on the graph. The OD value of the log concentration of the sample's HANGPTL3 protein is determined against the best-fit line of the log concentration by regression analysis. [formula]
(§3) Sequences with good activity in Table 8 were evaluated for in vitro inhibitory activity against ANGPTL3 Protein in primary human hepatocytes (PHH) and primary cynomolgus monkey hepatocytes (PCH). Table 10. In Vitro Inhibitory Activity of MCPP-siRNAs against ANGPTL3 mRNA in PHH Cell Line
(An ELISA detects its analyte on a solid surface through an enzyme-linked reagent.)

The subject of series [2] is ANGPTL3 Protein. The series can be described thus: PCH free uptake, inhibition of ANGPTL3, ELISA of supernatant. The series is classed as cell-based. The note with it: primary cynomolgus monkey hepatocytes, 72 hours. The procedure:
PCH cells were resuscitated using 10% FBS InvitroGRO™ HT Medium, and subsequently, the cell density was adjusted to 3×10^5 cells/mL using 10% FBS InvitroGRO™ CP Medium. Then, 10 µL of the compound from the dilution plate was added to the cell culture plate, resulting in final compound concentrations of 25, 5, and 1 nM. The cells were seeded into a 96-well plate at a density of 27,000 cells per well (90 µL/well), with a final culture volume of 100 µL per well. The cells were cultured in a 5% CO2 incubator at 37 °C for 72 hours.
as §1, §2, §3

For series [3], the system named is ANGPTL3. The series can be described thus: In vivo efficacy of ANGPTL3 GalNAc-siRNAs in hANGPTL3 humanized mice. To be noted: 3 mg/kg subcutaneous on day 0; days 7, 14, 21, 28; normalized to day -1; compared to the control; Fig. 1. The procedure:
To evaluate the in vivo efficacy of siRNA against ANGPTL3 in mice, female ANGPTL3 humanized mice (purchased from Shanghai Model Organisms Center, Inc.) were used for in vivo efficacy testing. Mice were randomly divided into 5 groups, with 5 mice per group: G1, Control (PBS) negative control group; G2, 2002-034-001 (3 mg/kg) treatment group; G3, 2008-010-001 (3 mg/kg) treatment group; G4, 2008-019-001 (3 mg/kg) treatment group; and G5, 2008-019-002 (3 mg/kg) treatment group.
On days -7 and -1, pre-dose plasma samples were obtained after a 4-hour fast. The above siRNA conjugates were diluted with saline and administered subcutaneously to the mice according to body weight on day 0. Plasma was collected after a 4-hour fast on days 7, 14, 21, and 28, respectively. The ANGPTL3 protein level in plasma was detected by ELISA (R&D Systems). Plasma triglycerides (TG), total cholesterol (CHO), high-density lipoprotein cholesterol (HDL-c), low-density lipoprotein cholesterol (LDL-c), alanine aminotransferase (ALT), and aspartate aminotransferase (AST) were tested by Shanghai Bikai Keyi Biotechnology Co., Ltd.
To evaluate the in vivo efficacy of the siRNAs against ANGPTL3 in mice, female ANGPTL3 humanized mice (purchased from Shanghai Model Organisms Center, Inc.) were used for the efficacy study. The mice were randomly allocated into five groups (n=5 per group) as follows: • G1: Control (PBS) negative control group; • G2: 2002-034-001 (3 mg/kg) treatment group; • G3: 2008-010-001 (3 mg/kg) treatment group; • G4: 2008-019-001 (3 mg/kg) treatment group; • G5: 2008-019-002 (3 mg/kg) treatment group.
The day of the first administration was designated as day 0. Accordingly, the day before administration was designated as day -1, and the day after administration as day 1.
On day -7, all mice were fasted for 4 hours, and mandibular blood was collected to obtain plasma for hANGPTL3 protein detection. […]
On day -1, pre-dose plasma samples were obtained after a 4-hour fast. […] The ANGPTL3 protein level in plasma was detected by ELISA (R&D Systems). […]

Series [4] has as its system ANGPTL3. The experiment in a line: In vivo efficacy of ANGPTL3 GalNAc-siRNA in HFD-induced hyperlipidemic cynomolgus monkeys. To be noted: single subcutaneous injection, normalized to pre-treatment, Fig. 2. The procedure:
To evaluate the in vivo activity of siRNA against ANGPTL3, 6 HFD-induced hyperlipidemic cynomolgus monkeys were used for the experiment. Pre-dose serum samples were obtained after a 4-hour fast on days -7 and -14. The siRNA conjugate was diluted with saline and administered subcutaneously according to the experimental design on day 0. Blank saline was used as a negative control. Plasma was collected after a 4-hour fast on days 0, 7, 14, 28, 42, 49, and 56. Serum triglycerides were detected using an automatic biochemical analyzer.
The ANGPTL3 protein levels and triglyceride levels for each animal were normalized. For normalization, at a given time point, the ANGPTL3 protein and triglyceride levels of each animal were divided by the pre-treatment expression level of that animal (the average of the pre-experiment samples for that group) to determine the change in "normalization to pre-treatment".

As a reminder, the IC50 is the concentration that gives 50% inhibition. In turn, “2008-010-001: GalNAc-conjugated modified ANGPTL3 siRNA, sense SEQ ID NO 40 (3'-YHZY12001), antisense SEQ ID NO 27 (sense GAGAAGAACUACAUAUAAA; antisense UUUAUAUGUAGUUCUUCUCAG; GalNAc conjugate YHZY12001 at sense 3', chemistry not fully specified) [Duplex 2008-010-001]” gave an IC50 with ANGPTL3 Protein [1] of 0.81 nM. The “Average Inhibition in PCH %” value in the series with ANGPTL3 Protein [2] (1nM) worked out at 62.75%. The “Average Inhibition in PCH %” value with ANGPTL3 Protein [2] (5nM) is 74.73%. Besides, the “Average Inhibition in PCH %” value in the series with ANGPTL3 Protein [2] (25nM) was 78.39%. In addition, in the series with ANGPTL3 [3], the “level of ANGPTL3 protein in the plasma” value is reported as “significantly reduced”, the “level of total cholesterol (CHO) in the plasma” value is listed as “significantly reduced” and the “level of triglycerides (TG) in the plasma” value was “significantly reduced”. Also, the “serum ANGPTL3 protein level” value with ANGPTL3 [4] is “significantly inhibited”. Further, the triglyceride level entry with ANGPTL3 [4] (serum) is on record as “significantly reduced”.
